In ChEMBL document CHEMBL1128871, “Synthesis and in vitro cytotoxicity of ()-acetomycin and related analogs” (Bioorg Med Chem Lett, 1995):

Columns and labels:
DA-3 cell line = assay: Tested for cytotoxic activity against DA-3 mouse mammary adenocarcinoma cells in MTT assay; format: functional, cell-based
HT-29 = assay: Tested for cytotoxic activity against HT-29 human colon adenocarcinoma cells in MTT assay; format: functional, cell-based
MCF7 [1] = assay: Tested for cytotoxic activity against MCF7-WT human breast adenocarcinoma cells in MTT assay; format: functional, cell-based
B16 = assay: Tested for cytotoxic activity against B16 mouse melanoma cells in MTT assay; format: functional, cell-based
[2] = Half-life period was determined in mouse blood; format: ADME, organism-based
MCF7 [3] = assay: Tested for cytotoxic activity against MCF7-WT human breast adenocarcinoma cells in MTT assay.; format: functional, cell-based

With CC(=O)O[C@@H]1OC(=O)[C@](O)(C(C)=O)[C@@H]1C the IC50 (DA-3 cell line) was over 50 µM, the IC50 (HT-29) was over 50 µM and the IC50 (MCF7 [1]) was over 50 µM. The IC50 (B16) was over 50 µM.

CC(=O)O[C@@H]1OC(=O)[C@@](C)(C(C)=O)[C@@H]1C gave an IC50 (DA-3 cell line) of 9 µM, an IC50 (HT-29) of 12 µM and an IC50 (MCF7 [1]) of over 10 µM. It also gave an IC50 (B16) of 14 µM.

Compound CC(=O)O[C@@H]1OC(=O)[C@](C)(C(C)=O)[C@@H]1C has a half-life [2] of under 5 min, an IC50 (DA-3 cell line) of 7 µM and an IC50 (HT-29) of 5 µM. The IC50 (MCF7 [1]) was 6 µM and the IC50 (B16) was 4 µM.

With CC(=O)[C@@]1(C)C(=O)O[C@@H](OC(=O)C(C)(C)C)[C@H]1C the half-life [2] was under 5 min, the IC50 (DA-3 cell line) was 1 µM and the IC50 (HT-29) was 2 µM. The IC50 (MCF7 [1]) was 3 µM and the IC50 (B16) was 2 µM.

With CC(=O)O[C@@H]1OC(=O)[C@](Cc2ccccc2)(C(C)=O)[C@@H]1C the IC50 (MCF7 [3]) was 48 µM, the IC50 (DA-3 cell line) was 45 µM and the IC50 (HT-29) was 40 µM. The IC50 (B16) was 41 µM.

Compound CC(=O)O[C@@H]1OC(=O)[C@](OC(=O)c2ccccc2)(C(C)=O)[C@@H]1C has an IC50 (DA-3 cell line) of 3 µM, an IC50 (HT-29) of 8 µM and an IC50 (MCF7 [1]) of 22 µM. It also gave an IC50 (B16) of 6 µM.

With CC(=O)O[C@@H]1OC(=O)[C@@](C(C)=O)(C2SCCCS2)[C@@H]1C the IC50 (DA-3 cell line) was over 50 µM, the IC50 (HT-29) was over 50 µM and the IC50 (MCF7 [1]) was over 50 µM. For the same compound, the IC50 (B16) was over 50 µM.

CC(=O)CC[C@]1(C(C)=O)C(=O)O[C@@H](OC(C)=O)[C@H]1C showed an IC50 (DA-3 cell line) of 8 µM, an IC50 (HT-29) of 7 µM and an IC50 (MCF7 [1]) of 6 µM. The IC50 (B16) was 7 µM.

CC(=O)O[C@@H]1OC(=O)[C@](Br)(C(C)=O)[C@@H]1C showed an IC50 (DA-3 cell line) of 6 µM, an IC50 (HT-29) of 12 µM and an IC50 (MCF7 [1]) of 17 µM. For the same compound, the IC50 (B16) was 9 µM.

CC(=O)O[C@@H]1OC(=O)[C@](C)(C(=O)CBr)[C@@H]1C gave an IC50 (DA-3 cell line) of 4 µM, an IC50 (HT-29) of 6 µM and an IC50 (MCF7 [1]) of 4 µM. It also gave an IC50 (B16) of 6 µM.

Compound CC(=O)O[C@@H]1OC(=O)[C@@](O)(C(C)=O)[C@@H]1C has an IC50 (DA-3 cell line) of over 50 µM, an IC50 (HT-29) of over 50 µM and an IC50 (MCF7 [1]) of over 50 µM. It also gave an IC50 (B16) of over 50 µM.

Work on CC(=O)O[C@@H]1OC(=O)[C@](OC(C)=O)(C(C)=O)[C@@H]1C yielded an IC50 (DA-3 cell line) of over 50 µM, an IC50 (HT-29) of over 50 µM and an IC50 (MCF7 [1]) of over 50 µM. It also gave an IC50 (B16) of over 50 µM.

CCO[C@@H]1OC(=O)[C@@](C)(C(C)=O)[C@@H]1C showed an IC50 (DA-3 cell line) of over 50 µM, an IC50 (HT-29) of over 50 µM and an IC50 (MCF7 [1]) of over 50 µM. The IC50 (B16) was over 50 µM.

For CC(=O)O[C@@H]1OC(=O)[C@@](C)(C(=O)c2ccccc2)[C@@H]1C, the IC50 (MCF7 [3]) was 15 µM, the IC50 (DA-3 cell line) was 15 µM and the IC50 (HT-29) was 7 µM. For the same compound, the IC50 (B16) was 7 µM.

In the case of CC(=O)O[C@@H]1OC(=O)[C@@](C)(C(C)=O)[C@@H]1C(C)C, the IC50 (DA-3 cell line) is reported as over 50 µM, the IC50 (HT-29) is reported as over 50 µM and the IC50 (MCF7 [1]) is reported as over 50 µM. For the same compound, the IC50 (B16) was over 50 µM.

For CC(=O)[C@]1(C)C(=O)O[C@@H](OC(=O)c2ccccc2)[C@H]1C, the IC50 (DA-3 cell line) was 2 µM, the IC50 (HT-29) was 6 µM and the IC50 (MCF7 [1]) was 8 µM. The IC50 (B16) was 5 µM.

With CC(=O)[C@@]1(C)C(=O)O[C@@H](OC(=O)c2ccccc2)[C@H]1C the half-life [2] was under 5 min, the IC50 (DA-3 cell line) was 1 µM and the IC50 (HT-29) was 1 µM. It also gave an IC50 (MCF7 [1]) of 3 µM and an IC50 (B16) of 1 µM.

Compound CCO[C@@H]1OC(=O)[C@](C)(C(C)=O)[C@@H]1C has an IC50 (DA-3 cell line) of over 50 µM, an IC50 (HT-29) of over 50 µM and an IC50 (MCF7 [1]) of over 50 µM. The IC50 (B16) was over 50 µM.

Compound CC(=O)O[C@@H]1OC(=O)[C@@](Cc2ccccc2)(C(C)=O)[C@@H]1C has an IC50 (DA-3 cell line) of 44 µM, an IC50 (HT-29) of 39 µM and an IC50 (MCF7 [1]) of 51 µM. For the same compound, the IC50 (B16) was 45 µM.

With CC(=O)O[C@@H]1OC(=O)[C@](C)(C(C)=O)[C@@H]1C(C)C the IC50 (DA-3 cell line) was over 50 µM, the IC50 (HT-29) was over 50 µM and the IC50 (MCF7 [1]) was over 50 µM. For the same compound, the IC50 (B16) was over 50 µM.

Work on CC(=O)O[C@@H]1OC(=O)[C@@](OC(C)=O)(C(C)=O)[C@@H]1C yielded an IC50 (DA-3 cell line) of over 50 µM, an IC50 (HT-29) of over 50 µM and an IC50 (MCF7 [1]) of over 50 µM. For the same compound, the IC50 (B16) was over 50 µM.

In the case of CC(=O)O[C@@H]1OC(=O)[C@@H](C(C)=O)[C@@H]1C, the IC50 (DA-3 cell line) is reported as over 50 µM, the IC50 (HT-29) is reported as over 50 µM and the IC50 (MCF7 [1]) is reported as over 50 µM. The IC50 (B16) was over 50 µM.

CC(=O)[C@]1(C)C(=O)O[C@@H](OC(=O)C(C)(C)C)[C@H]1C gave an IC50 (DA-3 cell line) of 4 µM, an IC50 (HT-29) of 9 µM and an IC50 (MCF7 [1]) of 7 µM. It also gave an IC50 (B16) of 10 µM.
